Values quoted from earlier work in patent US20230043979A1, “PHOSPHODIESTERASE-4 INHIBITOR COMBINATIONS, METHODS OF MAKING, AND METHODS OF USE THEREOF” (VK RESEARCH ASSOCIATES INC., priority 2021, published 2023).

Conditions: for Median plasma/elimination Half-life (T1/2): Table 1, PDE4 inhibitors, in h; for half-life / median time to maximum concentration: oral administration

| Median plasma/elimination Half-life (T1/2) | half-life | median time to maximum concentration | Compound |
| --- | --- | --- | --- |
| 6 to 9 | – | – | CCOc1cc([C@@H](CS(C)(=O)=O)N2C(=O)c3cccc(NC(C)=O)c3C2=O)ccc1OC [Apremilast] |
| 7 | – | – | COc1ccc([C@]2(C#N)CC[C@@H](C(=O)O)CC2)cc1OC1CCCC1 [Cilomilast] |
| 11.9 ± 8.3 | – | – | N#Cc1ccc(Oc2ccc3c(c2)COB3O)cc1 [Crisaborole] |
| 19 | – | – | CC(C)C(=O)c1c(C(C)C)nn2ccccc12 [Ibudilast] |
| 17 - 30 | 17 to 30 h | 1 to 2 h | O=C(Nc1c(Cl)cncc1Cl)c1ccc(OC(F)F)c(OCC2CC2)c1 [Roflumilast] |
| 3 | about 3 hours | about 30 minutes | COc1ccc(C2CNC(=O)C2)cc1OC1CCCC1 (stereo not shown) [Rolipram] |
